Assay results reported in patent publication US4803224A, “Antiviral antibiotic complex” (Bristol-Myers Company, priority 1986, dated 1989).
“Also recorded” adds a separate entry of the source. Read-outs that look alike come from different tables or passages of the source.

How the values were obtained:
Format in all cases: cell-based
[1] = test system: Bacillus subtilis PCI-219; assay: Paper disc-agar diffusion method; conditions: "are believed to be"
Text: (§1) The production of BU-2231 in the fermentation medium may be followed readily during the course of fermentation by the paper disc-agar diffusion method using Bacillus subtilis PCI-219 and Mycobacterium smegmatis strain M6-3 as test organisms. The BU-2231 A and BU-2231 B components of BU-2231 antibiotic complex as well as the co-produced aminoglycoside complex (also referred to as the "nebramycin factors" or "nebramycin components") are believed to be active against B. subtilis but only the BU-2231 A and B comppnents show activity against Mycobacterium smegmatis strain M6-3.

[2] = test system: Mycobacterium smegmatis strain M6-3; assay: Paper disc-agar diffusion method
Text: as §1

[3] = test system: herpes simplex virus type I (HSV-1); assay: Plaque reduction assay, HSV-1-Vero cell system; conditions: for Antiviral activity (in words): HSV-1, relative to the compounds tested; for Plaque reduction assay, Activity vs HSV-1 (ID50): Vero cell
[4] = test system: herpes simplex virus type I (HSV-1); assay: Dye-uptake assay, HSV-1-Vero cell system; conditions: for Dye-uptake assay, Activity vs HSV-1 (ID50): Vero cell
Procedure: (§2) The results are shown in Table 2 together with their cytotoxicity against the host cells.
In order to examine the relationship between peptide chain length and antiviral activity, a partial acid hydrolysis of BU-2231 V was carried out by heating with 6N HCl at 100 deg. C. for one hour. The hydrolyzate was chromatographed on CM-cellulose to yield 8 peptide fragments. Number of D-α,γ-diaminobutyric acid residues in each peptide was determined by the DNP method and antiviral activity against HSV-1 assessed by the dye-uptake assay (Table 4).

[5] = test system: Vero cell; assay: Cytotoxicity against host cells (plaque reduction assay)
Text: as §2

[6] = test system: Vero cell; assay: Cytotoxicity against host cells (dye-uptake assay)
Text: as §2

[7] = test system: Staphylococcus aureus Smith; assay: 2-fold serial broth dilution, nutrient broth
[8] = test system: Staphylococcus aureus BX-1633-2; assay: 2-fold serial broth dilution, nutrient broth
[9] = test system: Streptococcus faecalis A9612; assay: 2-fold serial broth dilution, nutrient broth
[10] = test system: Escherichia coli Juhl; assay: 2-fold serial broth dilution, nutrient broth
[11] = test system: Klebsiella pneumoniae A9977; assay: 2-fold serial broth dilution, nutrient broth
[12] = test system: Proteus mirabilis A9554; assay: 2-fold serial broth dilution, nutrient broth
[13] = test system: Serratia marcescens A20019; assay: 2-fold serial broth dilution, nutrient broth
[14] = test system: Enterobacter cloacae A9656; assay: 2-fold serial broth dilution, nutrient broth
[15] = test system: Haemophilus influenza A2241; assay: 2-fold serial broth dilution, nutrient broth
[16] = test system: Pseudomonas aeruginosa A9930; assay: 2-fold serial broth dilution, nutrient broth
[17] = test system: Gram-positive and Gram-negative bacteria; assay: In vitro antibacterial activity, 2-fold serial broth dilution, overall

In the case of `Cc1c(N)nc([C@H](CC(N)=O)NC[C@@H](N)C(N)=O)nc1C(=O)N[C@H](C(=O)N[C@H](C)[C@@H](O)CC(=O)N[C@@H](C(=O)NC(O[C@@H]1O[C@@H](C)[C@@H](N)[C@@H](O)[C@H]1O)C(O)c1nc(-c2nc(C(=O)NCCCNCCCCN)cs2)cs1)[C@@H](C)O)C(O[C@@H]1O[C@@H](CO)[C@H](O)[C@@H](O)[C@@H]1O[C@H]1O[C@H](CO)[C@@H](O)[C@@H](OC(N)=O)[C@@H]1O)c1cnc[nH]1` (stereo partly shown) [BU-2231 B], the “Activity against B. subtilis (in words)” value [1] is reported as “active” and the “Activity against Mycobacterium smegmatis strain M6-3 (in words)” value [2] is reported as “show activity”.
For ε-poly-L-lysine, the “Antiviral activity (in words)” value [3] was “slightly less active than BU-2231 V”, the “Plaque reduction assay, Activity vs HSV-1 (ID50)” value (from here on “Plaque reduction assay, Activity”) [3] was 2.6 µg/mL and the “Antiviral activity (in words)” value ([4]; HSV-1) was “comparably active”. For the same compound, the “Dye-uptake assay, Activity vs HSV-1 (ID50)” value [4] was 2.7 µg/mL, the “Plaque reduction assay, Cytotoxicity vs Vero cell (TCID50)” value [5] was 70 µg/mL and the “Dye-uptake assay, Cytotoxicity vs Vero cell (TCID50)” value [6] was > 100 µg/mL. For the same compound, the “MIC by TDT” value [7] was 6.3 µg/mL, the “MIC by TDT” value [8] was 6.3 µg/mL and the “MIC by TDT” value [9] was 50 µg/mL. The “MIC by TDT” value [10] was 6.3 µg/mL, the “MIC by TDT” value [11] was 6.3 µg/mL and the “MIC by TDT” value [12] was 6.3 µg/mL. For the same compound, the “MIC by TDT” value [13] was 25 µg/mL, the “MIC by TDT” value [14] was 25 µg/mL and the “MIC by TDT” value [15] was 12.5 µg/mL. The “MIC by TDT” value [16] was 12.5 µg/mL and the “Antibacterial activity (in words)” value [17] was “moderate inhibitory activity; also recorded: comparable”.
With `Cc1c(N)nc([C@H](CC(N)=O)NC[C@H](N)C(N)=O)nc1C(=O)N[C@H](C(=O)N[C@H](C)[C@@H](O)CC(=O)N[C@H](C(=O)NC(O[C@@H]1O[C@@H](C)[C@@H](N)[C@@H](O)[C@H]1O)C(O)c1nc(-c2nc(C(=O)NCCCC(N)CC(=O)NCCCNCCCCN)cs2)cs1)[C@@H](C)O)[C@H](O[C@@H]1O[C@@H](CO)[C@@H](O)[C@H](O)[C@@H]1O[C@H]1O[C@H](CO)[C@@H](O)[C@H](OC(N)=O)[C@@H]1O)c1c[nH]cn1` (stereo partly shown) [BU-2231 A] the “Activity against B. subtilis (in words)” value [1] was “active” and the “Activity against Mycobacterium smegmatis strain M6-3 (in words)” value [2] was “show activity”.
“α-poly-L-lysine [α-Poly-L-lysine (MW: 25,000)]” was tested, and the “Antiviral activity (in words)” value ([3]; listed as higher molecular α-poly-L-lysine) was “slightly less active than BU-2231 V”, the “Plaque reduction assay, Activity” value [3] was 1.8 µg/mL and the “Dye-uptake assay, Activity vs HSV-1 (ID50)” value [4] was > 20 µg/mL.
In the case of `NCC[C@@H](N)C(=O)O` [D-α,γ-DAB, D-α,γ-diaminobutyric acid], the IC50 ([4]; Human alphaherpesvirus 1, Vero, partial hydrolyzates of BU-2231V, read-out: Anti-HSV-1 activity ID50) is reported as > 660 µg/mL.
“α-poly-L-lysine [α-Poly-L-lysine (MW: 3,500)]” was tested, and the “Antiviral activity (in words)” value ([3]; listed as lower molecular α-poly-L-lysine) was “least active”, the “Plaque reduction assay, Activity” value [3] was 42 µg/mL and the “Dye-uptake assay, Activity vs HSV-1 (ID50)” value [4] was 100 µg/mL. For the same compound, the “MIC by TDT” value [7] was 12.5 µg/mL, the “MIC by TDT” value [8] was 25 µg/mL and the “MIC by TDT” value [9] was > 100 µg/mL. The “MIC by TDT” value [10] was 12.5 µg/mL, the “MIC by TDT” value [11] was 12.5 µg/mL and the “MIC by TDT” value [12] was 50 µg/mL. The “MIC by TDT” value [13] was > 100 µg/mL, the “MIC by TDT” value [14] was > 100 µg/mL and the “MIC by TDT” value [15] was 100 µg/mL. The “MIC by TDT” value [16] was > 100 µg/mL, the “Antibacterial activity (in words)” value [17] was “moderate inhibitory activity” and the “Antibacterial activity (in words)” value ([17]; listed as α-poly-L-lysines) was “little weaker than others”.
